Reference: ChEMBL document CHEMBL5365529, “Construction and Evaluation of Novel Dual-function Antifungal Inhibitors and Covalent Organic Framework Carriers Based on the Infection Microenvironment” (J Med Chem, 2023)
In brackets after ≈: the same amount, converted by molar mass. Activity calls are given as the source filed them. No cut-off for these calls is given here.

Legend:
Candida albicans [1] = assay: Antifungal activity against Candida albicans SC5314 assessed as fungal growth inhibition incubated for 72 hrs by CLSI based susceptibility test; assay type: functional
Candida albicans [2] = assay: Antifungal activity against Candida albicans 901 infected in BALB/c mouse assessed as repair of tissue damage at 0.5 ug/g administered 6 times measured after 4 days by GMS staining based analysis; assay type: functional, organism-based; conditions: dose 0.5 µg/g, time 4.0 day
[3] = target: T1, Lanosterol 14-alpha demethylase (Candida albicans (strain SC5314 / ATCC MYA-2876) (Yeast), UniProt P10613); assay: Inhibition of CYP51 in Candida albicans SC5314 using lanosterol as substrate incubated for 60 mins by HPLC analysis
Candida albicans [4] = assay: Induction of apoptosis in Candida albicans SC5314 assessed as necrotic cells incubated for 48 hrs by annexin V-FITC/PI staining based flow cytometry (reference value: 2.12 %); assay type: functional
Aspergillus fumigatus = assay: Antifungal activity against Aspergillus fumigatus KM8001 assessed as fungal growth inhibition incubated for 72 hrs by CLSI based susceptibility test; assay type: functional
[5] = Toxicity in BALB/c mouse infected with Candida albicans 901 assessed as pathological change in kidney at 0.5 ug/g administered 6 times measured after 4 days by H and E staining based analysis; assay type: tissue-based; conditions: in vivo, 96 h, dose 0.5 µg/g, time 4 day
Cryptococcus neoformans = assay: Antifungal activity against Cryptococcus neoformans ZKCC 2209 assessed as fungal growth inhibition incubated for 72 hrs by CLSI based susceptibility test; assay type: functional
Candida albicans [6] = assay: Antifungal activity against FLC-resistant Candida albicans CaR assessed as fungal growth inhibition incubated for 72 hrs by CLSI based susceptibility test; assay type: functional
Candida albicans [7] = assay: Antifungal activity against FLC-resistant Candida albicans 17# assessed as fungal growth inhibition incubated for 72 hrs by CLSI based susceptibility test; assay type: functional
[8] = Toxicity in BALB/c mouse infected with Candida albicans 901 assessed as pathological change in liver at 0.5 ug/g administered 6 times measured after 4 days by H and E staining based analysis; assay type: tissue-based; conditions: in vivo, 96 h, dose 0.5 µg/g, time 4 day
[9] = target: T1, Lanosterol 14-alpha demethylase; assay: Inhibition of CYP51 in Candida albicans SC5314 assessed as lanosterol level at 4 ug/ml incubated for 16 hrs by GC-MS analysis relative to control; design: scale not given: the % may be the effect or the level left; conditions: at 4 µg/mL
[10] = Toxicity in BALB/c mouse infected with Candida albicans 901 assessed as plasma CRE level at 0.5 ug/g administered 6 times measured after 4 days (reference value: 18.48 +/- 2.7 umol/L); conditions: in vivo, 96 h, dose 0.5 µg/g, time 4 day
[11] = target: Programmed cell death 1 ligand 1 (Homo sapiens, UniProt Q9NZQ7); assay: Binding affinity to PD-L1 (unknown origin) immobilized on carboxy chip assessed as dissociation constant by SPR analysis
Candida albicans [12] = assay: Induction of immunity in BALB/c mouse infected with Candida albicans 901 assessed as increase in CD3 positive level at 0.5 ug/g administered 6 times measured after 4 days by IHC analysis; assay type: functional, organism-based; conditions: dose 0.5 µg/g, time 4.0 day
Nakaseomyces glabratus = assay: Antifungal activity against Candida glabrata assessed as fungal growth inhibition incubated for 72 hrs by CLSI based susceptibility test; assay type: functional
[13] = Toxicity in BALB/c mouse infected with Candida albicans 901 assessed as toxic side effects at 0.5 ug/g administered 6 times measured after 4 days; conditions: in vivo, 96 h, dose 0.5 µg/g, time 4 day
Candida albicans [14] = assay: Induction of morphological changes in Candida albicans SC5314 assessed as accumulation of low-density granules measured for 96 to 144 hrs by TEM analysis; assay type: functional, organism-based; conditions: time 96-144 hrs
Candida albicans [15] = assay: Antifungal activity against Candida albicans 901 infected in BALB/c mouse assessed as decrease in collagen fiber content at 0.5 ug/g administered 6 times measured after 4 days by GMS staining based analysis; assay type: functional, organism-based; conditions: dose 0.5 µg/g, time 4.0 day
Mus musculus = assay: Antiinflammatory activity in BALB/c mouse infected with Candida albicans 901 assessed as decrease in INF-gamma level at 0.5 ug/g administered 6 times measured after 4 days by IHC analysis; assay type: functional, organism-based; conditions: dose 0.5 µg/g, time 4.0 day
Candida tropicalis = assay: Antifungal activity against Candida tropicalis ATCC 1369 assessed as fungal growth inhibition incubated for 72 hrs by CLSI based susceptibility test; assay type: functional
[16] = Drug uptake in Candida albicans SC5314 assessed as increase in blue fluorescence by hoechst 33256 staining based imaging analysis; assay type: ADME
Candida albicans [17] = assay: Antifungal activity against Candida albicans 901 infected in BALB/c mouse assessed as appearance of necrotic cell fragments in interstitial space at 0.5 ug/g administered 6 times measured after 4 days by H and E staining based analysis; assay type: functional, organism-based; conditions: dose 0.5 µg/g, time 4.0 day

T1 sequence (P10613 whole entry): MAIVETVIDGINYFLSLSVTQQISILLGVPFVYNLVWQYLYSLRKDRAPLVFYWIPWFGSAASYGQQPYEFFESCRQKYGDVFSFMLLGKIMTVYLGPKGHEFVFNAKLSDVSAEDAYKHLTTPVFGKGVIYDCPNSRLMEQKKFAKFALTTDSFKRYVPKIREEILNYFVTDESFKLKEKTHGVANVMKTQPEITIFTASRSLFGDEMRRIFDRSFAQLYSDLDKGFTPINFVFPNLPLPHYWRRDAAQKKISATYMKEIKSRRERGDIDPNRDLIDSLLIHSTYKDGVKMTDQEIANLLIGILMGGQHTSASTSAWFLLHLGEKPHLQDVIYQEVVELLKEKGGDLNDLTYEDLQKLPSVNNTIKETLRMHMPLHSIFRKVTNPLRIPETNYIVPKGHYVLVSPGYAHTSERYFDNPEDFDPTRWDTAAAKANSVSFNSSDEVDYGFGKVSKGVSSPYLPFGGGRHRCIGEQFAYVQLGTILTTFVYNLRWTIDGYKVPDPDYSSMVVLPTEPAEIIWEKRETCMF
Sequence of Programmed cell death 1 ligand 1 (Q9NZQ7 whole entry): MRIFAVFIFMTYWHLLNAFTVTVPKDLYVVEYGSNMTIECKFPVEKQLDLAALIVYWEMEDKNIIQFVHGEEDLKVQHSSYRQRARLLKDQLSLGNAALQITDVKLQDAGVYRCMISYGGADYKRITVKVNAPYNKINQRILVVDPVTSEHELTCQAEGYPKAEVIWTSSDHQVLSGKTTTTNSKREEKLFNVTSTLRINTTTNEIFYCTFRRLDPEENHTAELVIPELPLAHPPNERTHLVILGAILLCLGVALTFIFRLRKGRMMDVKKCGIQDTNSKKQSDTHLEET

With `COC(=O)[C@@H](Cn1cncn1)NCc1cccc(OCc2cccc(-c3ccccc3)c2C)c1` the MIC50 (Candida albicans [1]) was 0.125 µg/mL (≈ 0.274 µM), the Activity (Candida albicans [2]) was “Active” and the IC50 [3] was 170 nM. For the same compound, the Activity (Candida albicans [4]) was 25.91%, the MIC50 (Aspergillus fumigatus) was 2 µg/mL (≈ 4.38 µM) and the Activity [5] was “Non-Toxic”. The MIC50 (Cryptococcus neoformans) was 0.5 µg/mL (≈ 1.1 µM), the MIC50 (Candida albicans [6]) was 2 µg/mL (≈ 4.38 µM) and the MIC50 (Candida albicans [7]) was 4 µg/mL (≈ 8.76 µM). The Activity [8] was “Non-Toxic”, the Activity [9] was 10.47% and the Activity [10] was 10.91 µmol/L. The Kd [11] was 15 nM, the Activity (Candida albicans [12]) was “Active” and the MIC50 (Nakaseomyces glabratus) was 0.125 µg/mL (≈ 0.274 µM). The Activity [13] was “Non-Toxic”, the Activity (Candida albicans [14]) was “Active” and the Activity (Candida albicans [15]) was “Active”. The Activity (Mus musculus) was “Active”, the MIC50 (Candida tropicalis) was 0.5 µg/mL (≈ 1.1 µM) and the Drug uptake [16] was “Active”. For the same compound, the Activity (Candida albicans [17]) was “Active”.
